Experimental data taken from ChEMBL document CHEMBL1201862, “PubChem BioAssay data set” (2004).
The source made the active and inactive calls.

Experiments:
[1] = molecular target: T1, Zinc finger protein mex-5 (Caenorhabditis elegans, UniProt Q9XUB2); experiment: MEX-5/TCR-2 RNA interaction inhibitors, dose response, biochemical, C. elegans, fluorescence polarization (AID 1960)
T1 sequence (Q9XUB2 whole entry): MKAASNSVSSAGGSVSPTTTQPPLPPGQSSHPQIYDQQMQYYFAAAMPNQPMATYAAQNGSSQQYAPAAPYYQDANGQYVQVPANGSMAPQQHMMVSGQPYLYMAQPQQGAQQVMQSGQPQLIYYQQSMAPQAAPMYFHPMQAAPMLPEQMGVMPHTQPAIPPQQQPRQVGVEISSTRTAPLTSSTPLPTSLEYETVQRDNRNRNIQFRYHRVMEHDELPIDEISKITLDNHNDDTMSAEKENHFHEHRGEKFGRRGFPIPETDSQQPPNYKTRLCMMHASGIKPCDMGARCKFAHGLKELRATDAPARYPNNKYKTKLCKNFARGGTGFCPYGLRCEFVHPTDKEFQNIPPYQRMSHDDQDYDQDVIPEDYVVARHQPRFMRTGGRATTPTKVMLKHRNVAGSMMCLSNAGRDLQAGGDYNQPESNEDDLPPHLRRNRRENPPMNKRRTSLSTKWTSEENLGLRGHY

[2] = molecular target: T2, Corticotropin-releasing factor receptor 2/Corticotropin-releasing factor-binding protein (Homo sapiens, UniProt P24387+Q13324); experiment: activators of CRF receptor 2 with binding protein – uHTS hits, confirmation (AID 602473); type: functional; details: read-out: EC50_Mean
T2 sequence (Q13324 whole entry): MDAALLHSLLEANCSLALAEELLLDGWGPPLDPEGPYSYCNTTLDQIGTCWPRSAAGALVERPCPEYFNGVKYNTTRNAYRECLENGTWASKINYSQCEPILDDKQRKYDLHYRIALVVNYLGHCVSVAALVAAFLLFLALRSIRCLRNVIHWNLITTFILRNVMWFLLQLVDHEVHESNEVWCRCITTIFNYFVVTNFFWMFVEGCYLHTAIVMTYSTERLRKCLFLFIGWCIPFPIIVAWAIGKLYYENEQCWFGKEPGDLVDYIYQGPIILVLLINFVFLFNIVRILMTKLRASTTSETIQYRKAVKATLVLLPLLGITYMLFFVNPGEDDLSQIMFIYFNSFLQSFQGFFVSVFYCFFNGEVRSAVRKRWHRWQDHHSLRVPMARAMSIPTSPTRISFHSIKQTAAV
T2 sequence (P24387 whole entry): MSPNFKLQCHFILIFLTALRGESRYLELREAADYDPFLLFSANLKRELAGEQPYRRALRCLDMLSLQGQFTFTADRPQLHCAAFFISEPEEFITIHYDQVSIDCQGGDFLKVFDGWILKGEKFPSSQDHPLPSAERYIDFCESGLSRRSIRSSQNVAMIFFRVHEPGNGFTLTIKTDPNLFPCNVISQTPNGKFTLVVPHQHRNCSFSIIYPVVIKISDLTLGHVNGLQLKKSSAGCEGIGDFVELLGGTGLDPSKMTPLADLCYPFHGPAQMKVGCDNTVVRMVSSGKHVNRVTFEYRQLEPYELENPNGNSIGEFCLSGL

[3] = molecular target: Heat shock protein HSP 90-alpha (Homo sapiens, UniProt P07900); experiment: Luminescence-based dose response biochemical high throughput screening assay for inhibitors of the Heat Shock Protein 90 (HSP90). [Related pubchem assays: 1831 (Summary AID.), 1846 (Confirmation screen.), 1789 (Primary screen.)]
[4] = Luminescence Cell-Based Dose Confirmation HTS to Identify Activators of 5'UTR Stem-Loop Driven Alpha-Synuclein mRNA Translation in H4 Neuroglioblastoma Cells. [Related pubchem assays: 1829 (Project Summary), 1814 (Primary HTS)]; type: functional
[5] = Luminescence Cell-Based Dose Response HTS to Identify Activators of Luciferase Translation or Activity in H4 […] Cells. [Related pubchem assays: 1829 (Project Summary), 1814 (Primary HTS)]; type: functional
[6] = system: H4; experiment: Luminescence Cell-Based Dose Response HTS to Identify Activators of 5'UTR Stem-Loop Driven Prion Protein mRNA Translation in H4 Neuroglioblastoma Cells. [Related pubchem assays: 1829 (Project Summary), 1814 (Primary HTS)]; type: functional; details: Homo sapiens
[7] = molecular target: T3, RNA-binding protein pos-1 (Caenorhabditis elegans, UniProt G5EF15); experiment: inhibitors of POS-1/mex-3 RNA binding, dose response, biochemical, fluorescence polarization (AID 1964);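 also: purified POS-1 fused to maltose binding protein made in E. coli; potency of compounds blocking POS-1 binding to fluorescent RNA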
T3 sequence (G5EF15 whole entry): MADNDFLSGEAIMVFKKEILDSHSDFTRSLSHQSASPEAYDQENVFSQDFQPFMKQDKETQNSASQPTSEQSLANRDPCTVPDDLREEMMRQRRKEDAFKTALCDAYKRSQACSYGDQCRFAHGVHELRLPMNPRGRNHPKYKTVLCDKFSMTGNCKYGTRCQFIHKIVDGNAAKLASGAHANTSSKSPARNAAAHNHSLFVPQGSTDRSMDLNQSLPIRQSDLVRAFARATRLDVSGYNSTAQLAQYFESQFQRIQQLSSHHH

[8] = molecular target: Luciferin 4-monooxygenase (Photinus pyralis, UniProt P08659); experiment: In vitro luciferase assay using purified luciferase. [Related pubchem assays: 1299, 1270, 1295, 1375, 1287, 1281, 1293, 1291, 1289, 1280, 465, 1364, 1282, 1372, 1365, 1370, 1367, 1366, 1266, 1373, 1292, 1290, 1302, 1371, 1283, 1271, 1294, 1374, 1368, 1369 ]
Sequence of Luciferin 4-monooxygenase (P08659 whole entry): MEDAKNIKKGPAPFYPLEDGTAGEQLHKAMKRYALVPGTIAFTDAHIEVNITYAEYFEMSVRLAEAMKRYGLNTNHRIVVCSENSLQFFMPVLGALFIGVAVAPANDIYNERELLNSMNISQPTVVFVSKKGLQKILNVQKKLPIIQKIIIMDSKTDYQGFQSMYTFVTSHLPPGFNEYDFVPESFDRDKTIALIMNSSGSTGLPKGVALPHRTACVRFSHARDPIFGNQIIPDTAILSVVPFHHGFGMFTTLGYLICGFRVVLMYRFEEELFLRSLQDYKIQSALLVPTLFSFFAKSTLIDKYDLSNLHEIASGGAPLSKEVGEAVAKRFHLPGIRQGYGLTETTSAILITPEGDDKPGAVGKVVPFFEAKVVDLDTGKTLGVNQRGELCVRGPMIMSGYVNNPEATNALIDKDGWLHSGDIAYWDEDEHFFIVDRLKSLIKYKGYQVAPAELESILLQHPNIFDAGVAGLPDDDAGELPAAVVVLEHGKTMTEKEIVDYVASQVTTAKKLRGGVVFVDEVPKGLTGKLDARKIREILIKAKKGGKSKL

[9] = system: HEK293; experiment: Cytotoxicity assay in HEK293 cells. [Related pubchem assays (depositor defined):AID1266, AID1269, AID1270, AID1271, AID1280, AID1281, AID1282, AID1283, AID1287, AID1289, AID1290, AID1291, AID1292, AID1293, AID1294, AID1295, AID1299, AID1302, AID1364, AID1365, AID1366, AID1367, AID1369, AID1370, AID1371, AID1372, AID1373, AID1374, AID1375, AID1384 …; type: functional, cell-based; details: Homo sapiens
[10] = system: HEK293; experiment: TNF Induced NF-kB Luciferase in 293-NF-kB-Luc Stable Cells. [Related pubchem assays: 1266, 1299, 1269, 1373, 1292, 1290, 1302, 1371, 1283, 1270, 1295, 1271, 1375, 1294, 1374, 1281, 1293, 1291, 1289, 1280, 465, 1368, 1364, 1282, 1372, 1365, 1369, 1370, 1367, 1366 ]; type: functional, cell-based; details: Homo sapiens
[11] = system: HEK293; experiment: PMA/Ionomycin induced NF-kB luciferase assay in 293- NF-kB-Luc stable cells. [Related pubchem assays: 1299, 1270, 1295, 1375, 1287, 1281, 1293, 1291, 1289, 1280, 465, 1364, 1282, 1372, 1365, 1370, 1367, 1366, 1269, 1373, 1292, 1290, 1302, 1371, 1283, 1271, 1294, 1374, 1368, 1369 ]; type: functional, cell-based; details: Homo sapiens
[12] = Vero cell cytotoxicity, dose response, cytotoxicity control for Vif-APOBEC3G degradation inhibitor project, Vero cells (AID 1117358); type: functional; details: Human immunodeficiency virus 1, Vero
[13] = inducers of E-selectin gene expression, confirmation, orthogonal assay for E-selectin inducer project, cell-based, HUVEC, RT-qPCR, dry powder (AID 1117270); type: functional
[14] = molecular target: T4, Protein skinhead-1 (Caenorhabditis elegans, UniProt P34707); type: functional
T4 sequence (P34707 whole entry): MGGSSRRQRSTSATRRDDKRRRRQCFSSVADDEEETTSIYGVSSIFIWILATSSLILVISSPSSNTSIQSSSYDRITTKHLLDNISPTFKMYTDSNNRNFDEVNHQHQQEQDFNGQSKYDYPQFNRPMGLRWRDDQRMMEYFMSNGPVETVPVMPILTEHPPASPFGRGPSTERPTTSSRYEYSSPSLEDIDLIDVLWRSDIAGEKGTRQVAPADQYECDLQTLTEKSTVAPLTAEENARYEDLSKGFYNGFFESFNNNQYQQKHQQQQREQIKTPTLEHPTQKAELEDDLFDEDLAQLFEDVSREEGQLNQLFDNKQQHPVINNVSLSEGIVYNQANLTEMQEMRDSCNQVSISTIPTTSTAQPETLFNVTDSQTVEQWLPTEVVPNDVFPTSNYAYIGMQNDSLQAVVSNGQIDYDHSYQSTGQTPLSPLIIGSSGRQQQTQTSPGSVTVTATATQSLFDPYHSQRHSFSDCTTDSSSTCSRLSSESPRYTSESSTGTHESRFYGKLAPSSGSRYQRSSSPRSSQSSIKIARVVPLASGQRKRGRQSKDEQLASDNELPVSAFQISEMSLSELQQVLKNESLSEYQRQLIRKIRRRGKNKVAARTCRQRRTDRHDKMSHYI

Cc1ccc2oc(=O)c(/C=C(\O)c3cccs3)nc2c1
EC50 [1]: 6.82 µM (inconclusive) | EC50 [2]: 4.87 µM (active) | IC50 [3]: 5.05 µM (active) | EC50 [4]: 16.6 µM (active) | EC50 [5]: 13.1 µM (active) | EC50 [6]: 16.5 µM (active) | EC50 [7]: 21.3 µM (inconclusive)

Cc1ccc2[nH]c(=O)c(C(=O)/C=C/c3ccccc3Cl)c(-c3ccccc3)c2c1
EC50 [8]: > 8 µM (not active) | EC50 [9]: 5.72 µM (inactive) | EC50 [10]: 2.6 µM (active) | EC50 [11]: 1.17 µM (active)

COc1cc2c(cc1NC(=O)CC1SC(N3CCCC3)=NC1=O)oc1ccccc12 (centres undefined)
CC50 [12]: > 40 µM (active)

Cc1cccc(NC(=O)NCc2ccc3c(c2)cc(C)n3C)c1
AC50 [13]: 0.306 µM (active) | IC50 [14]: > 100 µM (inactive)
